The target in assay [1] is T1, human NPR1 (Homo sapiens, UniProt P16066).
T1 construct: host or cells: CHO-K1
T1 sequence (P16066 33-1061): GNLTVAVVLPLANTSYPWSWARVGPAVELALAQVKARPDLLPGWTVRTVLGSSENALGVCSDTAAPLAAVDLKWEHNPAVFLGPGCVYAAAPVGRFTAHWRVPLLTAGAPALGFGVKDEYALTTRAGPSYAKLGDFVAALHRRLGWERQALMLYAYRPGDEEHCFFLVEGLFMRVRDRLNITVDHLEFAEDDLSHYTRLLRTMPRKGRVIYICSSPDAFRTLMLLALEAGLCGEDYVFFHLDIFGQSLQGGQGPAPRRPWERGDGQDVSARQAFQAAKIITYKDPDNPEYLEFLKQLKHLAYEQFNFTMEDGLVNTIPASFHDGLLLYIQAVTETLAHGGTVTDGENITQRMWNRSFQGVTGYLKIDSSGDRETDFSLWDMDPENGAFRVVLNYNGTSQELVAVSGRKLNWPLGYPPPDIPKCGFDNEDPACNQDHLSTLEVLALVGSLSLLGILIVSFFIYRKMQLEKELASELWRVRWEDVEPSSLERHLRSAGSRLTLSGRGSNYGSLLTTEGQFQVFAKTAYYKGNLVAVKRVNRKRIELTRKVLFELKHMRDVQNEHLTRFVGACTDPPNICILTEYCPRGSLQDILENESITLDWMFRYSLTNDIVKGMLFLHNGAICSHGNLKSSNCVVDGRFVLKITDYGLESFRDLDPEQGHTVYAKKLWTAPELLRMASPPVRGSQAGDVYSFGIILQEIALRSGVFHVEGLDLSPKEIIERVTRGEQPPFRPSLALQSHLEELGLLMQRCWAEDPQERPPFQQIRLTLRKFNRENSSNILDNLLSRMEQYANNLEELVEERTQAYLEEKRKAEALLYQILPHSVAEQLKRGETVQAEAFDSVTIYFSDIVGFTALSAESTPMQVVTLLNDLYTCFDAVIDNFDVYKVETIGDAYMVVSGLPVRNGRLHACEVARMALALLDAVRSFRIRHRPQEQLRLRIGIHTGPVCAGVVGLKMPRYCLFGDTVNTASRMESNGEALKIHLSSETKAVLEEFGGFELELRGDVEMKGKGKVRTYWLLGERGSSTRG
The experiment in a line: Cellular cGMP production assay, human NPR1 expressing CHO-K1 cells (CisBio HTRF). In kind it is cell-based. The note with it: for AC50: cGMP production, 30 min at 37° C., 12-point dose-response from 30 μM; for Human NPR1 Amax (% of ANP): maximum cGMP production as percentage of the maximum cGMP produced with ANP. Summed up:
(§1)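 CHO-K1 cells expressing human or cynomolgus NPR1 treated with compound (12-point, 3-fold dilutions from 30 μM top) in PBS+0.1% BSA with 1 mM IBMX, 30 min at 37° C. After lysis, cGMP quantified by HTRF competition (cGMP-d2/anti-cGMP-cryptate, 1 h RT, 665 nm emission) against a calibrator standard curve.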

The target of assay [2] is monkey NPR1 (Macaca fascicularis, UniProt A0A7N9DBT9). Briefly: Cellular cGMP production assay, monkey NPR1 expressing CHO-K1 cells (CisBio HTRF). In kind it is cell-based. The note with it: for Monkey NPR1 Amax (% of ANP): maximum cGMP production as percentage of the maximum cGMP produced with ANP. Summed up: as §1
Sequence of monkey NPR1 (A0A7N9DBT9 entry or part of it): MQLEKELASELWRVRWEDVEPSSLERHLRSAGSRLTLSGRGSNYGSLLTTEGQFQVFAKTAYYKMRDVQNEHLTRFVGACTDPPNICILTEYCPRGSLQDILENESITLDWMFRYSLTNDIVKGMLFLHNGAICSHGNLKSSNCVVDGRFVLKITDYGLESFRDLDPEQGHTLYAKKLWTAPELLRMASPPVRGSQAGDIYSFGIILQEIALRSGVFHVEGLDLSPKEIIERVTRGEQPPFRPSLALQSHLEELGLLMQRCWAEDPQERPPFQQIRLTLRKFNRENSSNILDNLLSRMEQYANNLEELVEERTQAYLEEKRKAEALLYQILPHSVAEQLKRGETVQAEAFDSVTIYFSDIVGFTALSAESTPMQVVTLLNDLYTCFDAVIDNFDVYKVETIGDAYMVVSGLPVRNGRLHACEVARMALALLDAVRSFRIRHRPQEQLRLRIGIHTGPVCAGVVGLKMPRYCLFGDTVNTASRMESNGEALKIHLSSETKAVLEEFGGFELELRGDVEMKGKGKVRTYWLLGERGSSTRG
[3] abbreviates: cGMP production, monkey NPR1 CHO-K1 cells, 30 min at 37° C., 12-point dose-response from 30 μM, read-out: Monkey NPR1 AC50.

Where two headings read alike, the source gives them in different places.

Broadly, the AC50 is the concentration at which the activity in the assay is half-maximal.

As to `CC[C@H]([C@H]1CC[C@H](C(=O)O)CC1)N(C)c1nc2c(c(N[C@@H](CN3C4CCCC3CC(O)C4)c3ccccc3)n1)C[C@H](c1ccccc1)CC2` (stereo partly drawn) [Compound 112, (1R,4r)-4-((1R)-1-(((6R)-4-(((1R)-2-((1R,5S)-3-hydroxy-9-azabicyclo[3.3.1]nonan-9-yl)-1-phenylethyl)amino)-6-phenyl-5,6,7,8-tetrahydroquinazolin-2-yl)(methyl)amino)propyl)cyclohexane-1-carboxylic acid], in assay [1], the activity was half-maximal at 427 nM (AC50) and the “Human NPR1 Amax (% of ANP)” value is on record as 90.394 % of ANP. The activity in assay [2] was half-maximal at 394 nM (AC50). In addition, the “Monkey NPR1 Amax (% of ANP)” value in assay [2] (monkey NPR1 CHO-K1 cells) was 97.009 % of ANP.
In the same order, the values of `CC[C@H]([C@H]1CC[C@H](C(=O)O)CC1)N(C)c1nc2c(c(N[C@@H](CN3CCC[C@H](C)C3)c3cnn(C)c3)n1)C[C@@H](c1cccc(F)c1)CC2` [Compound 75, (1R,4r)-4-((R)-1-(((S)-6-(3-fluorophenyl)-4-(((R)-1-(1-methyl-1H-pyrazol-4-yl)-2-((S)-3-methylpiperidin-1-yl)ethyl)amino)-5,6,7,8-tetrahydroquinazolin-2-yl)(methyl)amino)propyl)cyclohexane-1-carboxylic acid] are 247 nM, 93.803 % of ANP, 162 nM and 102.588 % of ANP.
The corresponding values for `CC[C@@H](Nc1nc2c(c(N[C@@H](CN3C4CCCC3CC4)c3scnc3C)n1)C[C@H](c1cccc(F)c1)CC2)[C@H]1CC[C@H](C(=O)O)CC1` [Compound 26, (1R,4r)-4-((1R)-1-(((6R)-4-(((1S)-2-(8-azabicyclo[3.2.1]octan-8-yl)-1-(4-methylthiazol-5-yl)ethyl)amino)-6-(3-fluorophenyl)-5,6,7,8-tetrahydroquinazolin-2-yl)amino)propyl)cyclohexane-1-carboxylic acid] are 131 nM, 115.149 % of ANP, 91 nM and 102.667 % of ANP.
Regarding `CC[C@H]([C@H]1CC[C@H](C(=O)O)CC1)N(C)c1nc2c(c(N[C@@H](CN3CCC4CC4C3)c3cnn(C)c3)n1)C[C@H](c1ccccc1)CC2` (stereo partly drawn) [Compound 78, (1R,4r)-4-((1R)-1-(((6R)-4-(((1R)-2-(3-azabicyclo[4.1.0]heptan-3-yl)-1-(1-methyl-1H-pyrazol-4-yl)ethyl)amino)-6-phenyl-5,6,7,8-tetrahydroquinazolin-2-yl)(methyl)amino)propyl)cyclohexane-1-carboxylic acid], in assay [1], the concentration at half-maximal activity (AC50) amounted to 254 nM and the “Human NPR1 Amax (% of ANP)” value is given as 99.406 % of ANP. In addition, the AC50 in assay [2] (setting [3]) is 212 nM. Moreover, the “Monkey NPR1 Amax (% of ANP)” value in assay [2] (monkey NPR1 CHO-K1 cells) is 102.158 % of ANP.
The corresponding values for `CC[C@H]([C@H]1CC[C@H](C(=O)O)CC1)N(C)c1nc2c(c(N[C@@H](CN3CCC[C@H](C)C3)c3cnn(C)c3)n1)C[C@H](c1ccc(F)cc1)CC2` [Compound 14, (1R,4r)-4-((R)-1-(((R)-6-(4-fluorophenyl)-4-(((R)-1-(1-methyl-1H-pyrazol-4-yl)-2-((S)-3-methylpiperidin-1-yl)ethyl)amino)-5,6,7,8-tetrahydroquinazolin-2-yl)(methyl)amino)propyl)cyclohexane-1-carboxylic acid] are 97 nM, 94.761 % of ANP, 62 nM and 88.286 % of ANP.
The corresponding values for `CC[C@@H](N(C)c1nc2c(c(N[C@H](CN3CCCCCC3)c3cnn(C)c3)n1)C[C@H](c1cccc(F)c1)CC2)C12CC(C(=O)O)(C1)C2` [Compound 4, 3-((R)-1-(((R)-4-(((S)-2-(azepan-1-yl)-1-(1-methyl-1H-pyrazol-4-yl)ethyl)amino)-6-(3-fluorophenyl)-5,6,7,8-tetrahydroquinazolin-2-yl)(methyl)amino)propyl)bicyclo[1.1.1]pentane-1-carboxylic acid] are 72 nM, 99.041 % of ANP, 70 nM and 101.838 % of ANP.
As to `CC[C@@H](N(C)c1nc2c(c(N[C@@H](CN3CCC[C@H](C)C3)c3cc(C)nn3C)n1)C[C@H](c1ccccc1)CC2)C12CC(C(=O)O)(C1)C2` [Compound 140, 3-(1-(((R)-4-(((S)-1-(1,3-dimethyl-1H-pyrazol-5-yl)-2-((S)-3-methylpiperidin-1-yl)ethyl)amino)-6-phenyl-5,6,7,8-tetrahydroquinazolin-2-yl)(methyl)amino)-1l3-propyl)bicyclo[1.1.1]pentane-1-carboxylic acid], in assay [1], half-maximal activity (AC50) was put at 885 nM and the “Human NPR1 Amax (% of ANP)” value is recorded as 89.152 % of ANP. The AC50 in assay [2] (setting [3]) came out at 499 nM. The “Monkey NPR1 Amax (% of ANP)” value in assay [2] (monkey NPR1 CHO-K1 cells) was 96.883 % of ANP.
The corresponding values for `CC[C@@H](N(C)c1nc2c(c(N[C@@H](CN3CCC[C@H](C)C3)c3cnn(C)c3)n1)C[C@H](c1ccccc1)CC2)C12CC(C(=O)O)(C1)C2` [Compound 44, 3-((R)-1-(methyl((R)-4-(((R)-1-(1-methyl-1H-pyrazol-4-yl)-2-((S)-3-methylpiperidin-1-yl)ethyl)amino)-6-phenyl-5,6,7,8-tetrahydroquinazolin-2-yl)amino)propyl)bicyclo[1.1.1]pentane-1-carboxylic acid] are 173 nM, 99.256 % of ANP, 102 nM and 107.199 % of ANP.
The corresponding values for `CC(Nc1nc2c(c(N[C@@H](CN3CCCC3)c3ccccc3)n1)CC(c1ccccc1)CC2)[C@H]1CC[C@H](C(=O)O)CC1` (stereo partly drawn) [Compound 158, (1S,4r)-4-((1S)-1-((6-phenyl-4-(((R)-1-phenyl-2-(pyrrolidin-1-yl)ethyl)amino)-5,6,7,8-tetrahydroquinazolin-2-yl)amino)ethyl)cyclohexane-1-carboxylic acid] are 1430 nM, 109.837 % of ANP, 1270 nM and 165.777 % of ANP.
The corresponding values for `CC[C@H]([C@H]1CC[C@H](C(=O)O)CC1)N(C)c1nc2c(c(N[C@@H](CN3CCC[C@H](C)C3)c3ccnn3C)n1)C[C@H](c1cccc(F)c1)CC2` [Compound 161, (1R,4r)-4-((R)-1-(((R)-6-(3-fluorophenyl)-4-(((S)-1-(1-methyl-1H-pyrazol-5-yl)-2-((S)-3-methylpiperidin-1-yl)ethyl)amino)-5,6,7,8-tetrahydroquinazolin-2-yl)(methyl)amino)propyl)cyclohexane-1-carboxylic acid] are 1680 nM, 108.479 % of ANP, 989 nM and 97.242 % of ANP.
Take `CC[C@H]([C@H]1CC[C@H](C(=O)O)CC1)N(C)c1nc2c(c(N[C@@H](CN3CCC(C)CC3)c3cnn(C)c3)n1)C[C@H](c1ccccc1)CC2` [Compound 145, (1R,4r)-4-((R)-1-(methyl((R)-4-(((R)-1-(1-methyl-1H-pyrazol-4-yl)-2-(4-methylpiperidin-1-yl)ethyl)amino)-6-phenyl-5,6,7,8-tetrahydroquinazolin-2-yl)amino)propyl)cyclohexane-1-carboxylic acid]: the AC50 in assay [1] is 1050 nM; in assay [2] (setting [3]), 900 nM. Further, the “Human NPR1 Amax (% of ANP)” value in assay [1] is listed as 97.636 % of ANP. Moreover, the “Monkey NPR1 Amax (% of ANP)” value in assay [2] (monkey NPR1 CHO-K1 cells) is listed as 103.150 % of ANP.
As for `CC[C@H]([C@H]1CC[C@H](C(=O)O)CC1)N(C)c1nc2c(c(N[C@@H](CN3C4CCCC3CC4)c3cc(C)n(C)n3)n1)C[C@H](c1cccc(F)c1)CC2` [Compound 88, (1R,4r)-4-((1R)-1-(((6R)-4-(((1S)-2-(8-azabicyclo[3.2.1]octan-8-yl)-1-(1,5-dimethyl-1H-pyrazol-3-yl)ethyl)amino)-6-(3-fluorophenyl)-5,6,7,8-tetrahydroquinazolin-2-yl)(methyl)amino)propyl)cyclohexane-1-carboxylic acid], in assay [1], the AC50 was 303 nM and the “Human NPR1 Amax (% of ANP)” value is 98.817 % of ANP. The AC50 in assay [2] came out at 255 nM. The “Monkey NPR1 Amax (% of ANP)” value in assay [2] (monkey NPR1 CHO-K1 cells) was 94.699 % of ANP.

The values are drawn from patent US12129246B1, “Hydroquinazoline derivatives for the treatment of a disease or disorder” (Novartis AG, priority 2023, dated 2024).
